The values that follow come from patent US8524770B2, “Wool care composition” (Director General, Defence Research & Development …, priority 2009, dated 2013).

Each structure is given as a SMILES string.

Experiment [1] has as its system clothes moths. The note with it: Abbott & Billings 1935, Journal of Economic Entomology; cited from earlier work.
In experiment [2] the test system is clothes moths. The experiment in a line: Protection of woollen articles / repellency against clothes moths. The class given is in vivo. The note with it: confirmed by the present inventors. From the text:
Conventionally naphthalene or Paradichlorobenzene is known in the art to be used to protect woollen and fur-feather lined articles from insect damage during their storage. But these above compounds are ineffective against clothes moths and thus unable to provide protection to the woollen items as established by Abbott & Billings of USA in 1935 and published their work in the Journal of Economic Entomology on page 493-495 as entitled “Further work showing that Paradichlorobenzene, Naphthalene and cedar oils are ineffective as repellents against clothes moth”. The ineffectiveness of the naphthalene balls in protection of woollen articles from insect pests is also confirmed by the present inventors.

As to `Clc1ccc(Cl)cc1` [Paradichlorobenzene], the “Effectiveness as repellent against clothes moths” value in the experiment on clothes moths [1] is “ineffective”.
As for `c1ccc2ccccc2c1` [naphthalene], the “Protection of woollen articles from insect pests” value with clothes moths [2] was “ineffectiveness”. Further, in the experiment with clothes moths [1], the “Effectiveness as repellent against clothes moths” value was “ineffective”.
